Test results published in PubChem BioAssay (NCI).
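96-well plates; 48 h exposure; 5 concentrations. Endpoints by linear interpolation between flanking doses. Not reached: highest tested concentration assigned. Abbreviation: GI50, concentration required for 50% inhibition of growth. TGI is the concentration that stops growth completely.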

Legend:
Assay in all cases: inhibition of tumour cell growth, NCI panel, 48 h
RPMI-8226 leukemia = system: RPMI-8226 leukemia
A549 NSCLC = system: A549 NSCLC
NCI-H460 lung = system: NCI-H460 lung
SF-295 CNS = system: SF-295 CNS
SNB-75 CNS = system: SNB-75 CNS
NCI-H522 lung = system: NCI-H522 lung
SK-OV-3 ovarian = system: SK-OV-3 ovarian
HL-60(TB) leukemia = system: HL-60(TB) leukemia
PC-3 prostate = system: PC-3 prostate
BT-549 breast = system: BT-549 breast

Structure (SMILES) | TGI (RPMI-8226 leukemia) [µM] | TGI (A549 NSCLC) [µM] | TGI (NCI-H460 lung) [µM] | TGI (SF-295 CNS) [µM] | TGI (SNB-75 CNS) [µM] | TGI (NCI-H522 lung) [µM] | TGI (SK-OV-3 ovarian) [µM] | TGI (HL-60(TB) leukemia) [µM] | GI50 (RPMI-8226 leukemia) [µM] | GI50 (A549 NSCLC) [µM] | GI50 (NCI-H460 lung) [µM] | GI50 (SF-295 CNS) [µM] | GI50 (NCI-H522 lung) [µM] | GI50 (PC-3 prostate) [µM] | TGI (PC-3 prostate) [µM] | GI50 (SK-OV-3 ovarian) [µM] | GI50 (HL-60(TB) leukemia) [nM] | GI50 (BT-549 breast) [µM] | TGI (BT-549 breast) [µM] | GI50 (SNB-75 CNS) [µM]
Cc1ccc(NC(=O)C(=O)CC(=O)C2CCOC2=O)c(C)c1 (configuration not stated) | > 100 | > 100 | > 100 | > 100 | > 100 | > 100 | > 100 | > 100 | – | – | – | – | – | – | – | – | – | – | – | –
CC1=C(C(=O)NCc2ccccc2)C(c2ccc([N+](=O)[O-])cc2)C(C(=O)NCc2ccccc2)=C(C)N1 | – | > 100 | > 100 | > 100 | > 100 | > 100 | – | 49.3 | – | – | – | – | – | – | – | – | – | – | – | –
CN(C)CCSc1cccc(-c2cc(-c3cccc(SCCN(C)C)c3)nc(SCCN(C)C)n2)c1 | – | 3.47 | 3.46 | 3.52 | 12.1 | 2.98 | 45.5 | 3.67 | – | – | – | – | – | – | – | – | – | – | – | –
COc1ccc(NC(=O)CC/C(CC(=O)C(C)(C)C)=N\NC(=O)C(N)=O)cc1 | – | > 100 | > 100 | > 100 | – | – | > 100 | > 100 | – | – | – | – | – | – | – | – | – | – | – | –
CC(=O)O[C@H]1CCC2[C@@H]3CCC4=C(O)C(=O)C(C#N)C[C@]4(C)C3CC[C@@]21C (some centres not stated) | > 100 | > 100 | > 100 | > 100 | 72.1 | – | > 100 | 85.3 | – | – | – | – | – | – | – | – | – | – | – | –
O=c1c(O)cccc2cc(O)c(O)c(O)c12 | > 100 | > 100 | > 100 | > 100 | – | 14.5 | > 100 | 77.9 | 6.77 | > 100 | 6.86 | 5.28 | 3.63 | 54.1 | > 100 | > 100 | 21900 | – | – | –
O=C(c1ccccc1)c1oc2ccc(Br)cc2c1-c1cnn(-c2ccccc2)c1 | > 100 | – | > 100 | > 100 | > 100 | > 100 | > 100 | > 100 | – | – | – | – | – | – | – | – | – | – | – | –
COc1ccc(C(=O)C(c2ccc(OC)cc2)C2OC(=O)C(Cl)=C2Cl)cc1 (configuration not stated) | > 100 | > 100 | > 100 | > 100 | – | > 100 | > 100 | > 100 | – | – | – | – | – | – | – | – | – | – | – | –
O=C(Cc1nc2ccccc2s1)C(=O)Nc1cccc(Cl)c1 | > 100 | > 100 | – | > 100 | > 100 | > 100 | > 100 | > 100 | – | – | – | – | – | – | – | – | – | – | – | –
CC(C)C1CC2C(=O)N(c3ccccc3)C(=O)C2c2[nH]c3ccccc3c21 (configuration not stated) | > 100 | > 100 | > 100 | 65.5 | 23.5 | – | 79.4 | 93.9 | – | – | – | – | – | – | – | – | – | – | – | –
Cc1ccccc1C(=O)Oc1ccc(O)cc1 | > 100 | > 100 | > 100 | > 100 | > 100 | > 100 | > 100 | > 100 | – | – | – | – | – | – | – | – | – | – | – | –
O=C(/C=C/C=C/c1c(C2CC2)nc2ccccc2c1-c1ccc(F)cc1)c1cccs1 | – | > 100 | 3.31 | 5.97 | > 100 | 9.09 | > 100 | 5.48 | – | 3.72 | 1.14 | 1.95 | 2.52 | 3.99 | > 100 | 9.44 | 1580 | 1.59 | 5.07 | > 100
O=C(O)/C(Cl)=C(\Cl)C(=O)NC1C2CC3CC(C2)CC1C3 (configuration not stated) | > 100 | > 100 | – | > 100 | > 100 | > 100 | > 100 | > 100 | – | – | – | – | – | – | – | – | – | – | – | –
COc1cc(O)c2c(c1)C(=O)C=C(Cl)C2=O | > 100 | > 100 | – | > 100 | > 100 | > 100 | > 100 | > 100 | – | – | – | – | – | – | – | – | – | – | – | –
COc1ccc(N/N=C(\CCN(C)C)c2ccccc2)cc1 | 7.5 | – | 10.8 | 1.65 | 53 | 30 | 9.74 | 12.9 | – | – | – | – | – | – | – | – | – | – | – | –
O=C(O)c1cc2ccccc2c(N=Nc2cc(C(F)(F)F)ccc2Cl)c1O | > 100 | > 100 | > 100 | > 100 | 0.0907 | > 100 | > 100 | > 100 | – | – | – | – | – | – | > 100 | – | – | – | – | –
Cc1cc(Nc2c3ccccc3nc3ccccc23)ccc1NS(C)(=O)=O | 11.2 | 12 | 11.6 | 23.4 | 19.9 | 13.1 | 20.1 | 12.1 | 3.02 | 2.85 | 3.07 | 4.26 | 3.3 | – | – | 6.28 | 3670 | 10.3 | 22.5 | 5.11
CC(=O)OC1CC2Oc3ccc(C)cc3C(C)(O2)C1=O (configuration not stated) | > 100 | > 100 | > 100 | > 100 | > 100 | > 100 | > 100 | > 100 | – | – | – | – | – | – | – | – | – | – | – | –
O=C(Nc1cccc(Cc2cccc(NC(=O)c3ccccc3)c2)c1)c1ccccc1 | – | > 100 | > 100 | 70.2 | 27.5 | > 100 | 62.5 | > 100 | – | – | – | – | – | – | – | – | – | – | – | –
CN(CC#N)C1CCCC[C@H]1O (some centres not stated) | > 100 | > 100 | > 100 | > 100 | > 100 | > 100 | > 100 | > 100 | – | – | – | – | – | – | – | – | – | – | – | –
O=C(Nc1ccccc1O)c1ccc(CNc2ccnc(C(F)(F)F)c2)cc1 | 5.09 | > 100 | 83.4 | 17.1 | 48.4 | – | 41.7 | 8.03 | 0.5 | 12 | 3.78 | 3.16 | – | 2.72 | 48.4 | 5.41 | 1850 | 3.43 | 50 | 7.26
O=C(CC1(O)C(=O)Nc2ccccc21)c1ccco1 (configuration not stated) | > 100 | > 100 | > 100 | > 100 | > 100 | > 100 | > 100 | > 100 | – | – | – | – | – | – | – | – | – | – | – | –
Cc1ccc(C2NC(=O)c3ccccc3N2)s1 (configuration not stated) | > 100 | > 100 | 58.4 | 6.87 | – | 18.6 | 91.6 | 8.17 | – | – | – | – | – | – | – | – | – | – | – | –
